Experiments:
Type in all cases: functional
Details in all cases: UTEX 1648, light or radiation study, read-out: GI
[1] = system: Selenastrum capricornutum; test: Antialgal activity against Selenastrum capricornutum UTEX 1648 assessed as growth inhibition at 0.1 mM exposed to 150 uEs'-1m'-2 irradiation under 16 hrs light/8 hrs dark photoperiod conditions relative to control
[2] = system: Selenastrum capricornutum; test: Antialgal activity against Selenastrum capricornutum UTEX 1648 assessed as growth inhibition at 50 uM exposed to 150 uEs'-1m'-2 irradiation under 16 hrs light/8 hrs dark photoperiod conditions relative to control
[3] = system: Selenastrum capricornutum; test: Antialgal activity against Selenastrum capricornutum UTEX 1648 assessed as growth inhibition at 10 uM exposed to 150 uEs'-1m'-2 irradiation under 16 hrs light/8 hrs dark photoperiod conditions relative to control
[4] = system: Selenastrum capricornutum; test: Antialgal activity against Selenastrum capricornutum UTEX 1648 assessed as growth inhibition at 5 uM exposed to 150 uEs'-1m'-2 irradiation under 16 hrs light/8 hrs dark photoperiod conditions relative to control

SMILES	inhibition of growth at 100 µM [1] [%]	inhibition of growth at 50 µM [2] [%]	inhibition of growth at 10 µM [3] [%]	inhibition of growth at 5 µM [4] [%]
Cc1cc2c(c3c1OC(O)C3O)-c1ccc(O)c(C)c1CC2 (stereo not drawn)	20	10	0	0
Cc1c(O)ccc2c1CCc1c(C)c(O)cc(CO)c1-2	70	40	10	4
Cc1c(O)ccc2c1CCc1c(C)c(O)cc(C(C)O)c1-2 (stereo not drawn)	75	52	20	5
COc1cc(CO)c2c(c1C)CCc1c-2ccc(O)c1C	80	55	18	0
Cc1cc(CO)c2c(c1)CCc1c-2ccc(O)c1C	80	50	20	7
C=Cc1cc(CO)cc2c1-c1ccc(O)c(C)c1CC2	57	38	0	0
C=Cc1c(CO)ccc2c1-c1ccc(O)c(C)c1CC2	64	40	5	0

— ChEMBL document CHEMBL1158871, “Minor Bioactive Dihydrophenanthrenes from Juncus effusus” (1997)
